Measured values: patent US20230085307A1, “PYRIDAZINONE COMPOUND AND HERBICIDE” (NISSAN CHEMICAL CORPORATION, priority 2019, published 2023)

Experiments:
redroot pigweed [1] = assay: Test Example 4: herbicidal effect by soil treatment (Table 19, symbol N); type: in vivo, redroot pigweed (Amaranthus retroflexus); conditions: amount of applied herbicide 320 g/ha
How it was run: (§1)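 Step 1: sow seeds in sterilized diluvial soil, cover ~1.5 cm. Step 2: spray diluted emulsion onto soil surface at predetermined rate. Step 3: greenhouse, 25–30° C, three weeks. Step 4: grade effect on each plant by earlier criteria.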

persian speedwell [2] = assay: Test Example 5: herbicidal effect by foliage application, plastic box (Table 20, symbol R); type: in vivo, Persian speedwell (Veronica persica); conditions: 320 g/ha, foliage application after 14-day growth, evaluated three weeks after application
How it was run: (§2)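 Foliar spray test: emulsion formulation diluted in water to a set application rate, sprayed onto 14-day-old plants raised in diluvial soil at 25° C to 30° C under glass. Both herbicidal effect and crop effect rated visually three weeks later.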

windgrass [3] = assay: Test Example 5: herbicidal effect by foliage application, plastic box (Table 20, symbol L); type: in vivo, windgrass (Apera spica-venti); conditions: 320 g/ha, foliage application after 14-day growth, evaluated three weeks after application
How it was run: as §2

velvetleaf [4] = assay: Test Example 5: herbicidal effect by foliage application, plastic box (Table 20, symbol M); type: in vivo, velvetleaf (Abutilon theophrasti); conditions: 320 g/ha, foliage application after 14-day growth, evaluated three weeks after application
How it was run: as §2

southern crabgrass [5] = assay: Test Example 5: herbicidal effect by foliage application, plastic box (Table 20, symbol F); type: in vivo, southern crabgrass (Digitaria ciliaris); conditions: 320 g/ha, foliage application after 14-day growth, evaluated three weeks after application
How it was run: as §2

rice flat sedge = assay: Test Example 3: herbicidal effect by foliage application, Wagner pot (Table 18, symbol E); type: in vivo, rice flat sedge (Cyperus iria); conditions: 320 g/ha
How it was run: (§3)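 Plants were sown in alluvial soil held under 0.1–0.5 cm standing water and grown 14 days in a greenhouse at 25–30 °C. An emulsifiable formulation, water-diluted to the set dose, was then sprayed onto the foliage, and effects were scored three weeks later using previously defined criteria.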

Italian ryegrass [6] = assay: Test Example 5: herbicidal effect by foliage application, plastic box (Table 20, symbol K); type: in vivo, Italian ryegrass (Lolium multiflorum); conditions: 320 g/ha, foliage application after 14-day growth, evaluated three weeks after application
How it was run: as §2

southern crabgrass [7] = assay: Test Example 4: herbicidal effect by soil treatment (Table 19, symbol F); type: in vivo, southern crabgrass (Digitaria ciliaris); conditions: amount of applied herbicide 320 g/ha
How it was run: as §1

lambsquarters [8] = assay: Test Example 5: herbicidal effect by foliage application, plastic box (Table 20, symbol O); type: in vivo, lambsquarters (Chenopodium album); conditions: 320 g/ha, foliage application after 14-day growth, evaluated three weeks after application
How it was run: as §2

barnyard grass [9] = assay: Test Example 5: herbicidal effect by foliage application, plastic box (Table 20, symbol H); type: in vivo, barnyard grass (Echinochloa crus-galli); conditions: 320 g/ha, foliage application after 14-day growth, evaluated three weeks after application
How it was run: as §2

green foxtail [10] = assay: Test Example 4: herbicidal effect by soil treatment (Table 19, symbol G); type: in vivo, green foxtail (Setaria viridis); conditions: amount of applied herbicide 320 g/ha
How it was run: as §1

barnyard grass [11] = assay: Test Example 3: herbicidal effect by foliage application, Wagner pot (Table 18, symbol H); type: in vivo, barnyard grass (Echinochloa crus-galli); conditions: 320 g/ha
How it was run: as §3

velvetleaf [12] = assay: Test Example 4: herbicidal effect by soil treatment (Table 19, symbol M); type: in vivo, velvetleaf (Abutilon theophrasti); conditions: amount of applied herbicide 320 g/ha
How it was run: as §1

Chinese sprangletop = assay: Test Example 3: herbicidal effect by foliage application, Wagner pot (Table 18, symbol D); type: in vivo, chinese sprangletop (Leptochloa chinensis); conditions: 320 g/ha
How it was run: as §3

blackgrass [13] = assay: Test Example 4: herbicidal effect by soil treatment (Table 19, symbol J); type: in vivo, blackgrass (Alopecurus myosuroides); conditions: amount of applied herbicide 320 g/ha
How it was run: as §1

green foxtail [14] = assay: Test Example 5: herbicidal effect by foliage application, plastic box (Table 20, symbol G); type: in vivo, green foxtail (Setaria viridis); conditions: 320 g/ha, foliage application after 14-day growth, evaluated three weeks after application
How it was run: as §2

blackgrass [15] = assay: Test Example 5: herbicidal effect by foliage application, plastic box (Table 20, symbol J); type: in vivo, blackgrass (Alopecurus myosuroides); conditions: 320 g/ha, foliage application after 14-day growth, evaluated three weeks after application
How it was run: as §2

redroot pigweed [16] = assay: Test Example 5: herbicidal effect by foliage application, plastic box (Table 20, symbol N); type: in vivo, redroot pigweed (Amaranthus retroflexus); conditions: 320 g/ha, foliage application after 14-day growth, evaluated three weeks after application
How it was run: as §2

lambsquarters [17] = assay: Test Example 4: herbicidal effect by soil treatment (Table 19, symbol O); type: in vivo, lambsquarters (Chenopodium album); conditions: amount of applied herbicide 320 g/ha
How it was run: as §1

Italian ryegrass [18] = assay: Test Example 4: herbicidal effect by soil treatment (Table 19, symbol K); type: in vivo, Italian ryegrass (Lolium multiflorum); conditions: amount of applied herbicide 320 g/ha
How it was run: as §1

wild oat [19] = assay: Test Example 4: herbicidal effect by soil treatment (Table 19, symbol I); type: in vivo, wild oat (Avena fatua); conditions: amount of applied herbicide 320 g/ha
How it was run: as §1

chickweed [20] = assay: Test Example 4: herbicidal effect by soil treatment (Table 19, symbol P); type: in vivo, common chickweed (Stellaria media); conditions: amount of applied herbicide 320 g/ha
How it was run: as §1

persian speedwell [21] = assay: Test Example 4: herbicidal effect by soil treatment (Table 19, symbol R); type: in vivo, Persian speedwell (Veronica persica); conditions: amount of applied herbicide 320 g/ha
How it was run: as §1

wild oat [22] = assay: Test Example 5: herbicidal effect by foliage application, plastic box (Table 20, symbol I); type: in vivo, wild oat (Avena fatua); conditions: 320 g/ha, foliage application after 14-day growth, evaluated three weeks after application
How it was run: as §2

barnyard grass [23] = assay: Test Example 4: herbicidal effect by soil treatment (Table 19, symbol H); type: in vivo, barnyard grass (Echinochloa crus-galli); conditions: amount of applied herbicide 320 g/ha
How it was run: as §1

windgrass [24] = assay: Test Example 4: herbicidal effect by soil treatment (Table 19, symbol L); type: in vivo, windgrass (Apera spica-venti); conditions: amount of applied herbicide 320 g/ha
How it was run: as §1

chickweed [25] = assay: Test Example 5: herbicidal effect by foliage application, plastic box (Table 20, symbol P); type: in vivo, common chickweed (Stellaria media); conditions: 320 g/ha, foliage application after 14-day growth, evaluated three weeks after application
How it was run: as §2

SMILES | Herbicidal effect by soil treatment, N: redroot pigweed (redroot pigweed [1]) | herbicidal effect on R: persian speedwell (evaluation grade 0-5) (persian speedwell [2]) | herbicidal effect on L: windgrass (evaluation grade 0-5) (windgrass [3]) | herbicidal effect on M: velvetleaf (evaluation grade 0-5) (velvetleaf [4]) | herbicidal effect on F: southern crabgrass (evaluation grade 0-5) (southern crabgrass [5]) | herbicidal effect on rice flat sedge (E) (rice flat sedge) | herbicidal effect on K: Italian ryegrass (evaluation grade 0-5) (Italian ryegrass [6]) | Herbicidal effect by soil treatment, F: southern crabgrass (southern crabgrass [7]) | herbicidal effect on O: lambsquarters (evaluation grade 0-5) (lambsquarters [8]) | herbicidal effect on H: barnyard grass (evaluation grade 0-5) (barnyard grass [9]) | Herbicidal effect by soil treatment, G: green foxtail (green foxtail [10]) | herbicidal effect on barnyard grass (H) (barnyard grass [11]) | Herbicidal effect by soil treatment, M: velvetleaf (velvetleaf [12]) | herbicidal effect on Chinese sprangletop (D) (Chinese sprangletop) | Herbicidal effect by soil treatment, J: blackgrass (blackgrass [13]) | herbicidal effect on G: green foxtail (evaluation grade 0-5) (green foxtail [14]) | herbicidal effect on J: blackgrass (evaluation grade 0-5) (blackgrass [15]) | herbicidal effect on N: redroot pigweed (evaluation grade 0-5) (redroot pigweed [16]) | Herbicidal effect by soil treatment, O: lambsquarters (lambsquarters [17]) | Herbicidal effect by soil treatment, K: Italian ryegrass (Italian ryegrass [18]) | further results
Cc1ccc2c(-c3c(O)c(C)nn(C)c3=O)c(-c3ccc(OC(F)F)cc3)sc2c1 [3-151] | 0 (Herbicidal rate of 5% or less (almost no effect)) | 5 (Herbicidal rate of 90% or more (almost completely withered)) | 0 (Herbicidal rate of 5% or less (almost no effect)) | 3 (Herbicidal rate of 40% or more and less than 70%) | 0 (Herbicidal rate of 5% or less (almost no effect)) | 3 (Herbicidal rate of 40% or more and less than 70%) | 2 (Herbicidal rate of 20% or more and less than 40%) | 0 (Herbicidal rate of 5% or less (almost no effect)) | 3 (Herbicidal rate of 40% or more and less than 70%) | 0 (Herbicidal rate of 5% or less (almost no effect)) | 0 (Herbicidal rate of 5% or less (almost no effect)) | 3 (Herbicidal rate of 40% or more and less than 70%) | 0 (Herbicidal rate of 5% or less (almost no effect)) | 0 (Herbicidal rate of 5% or less (almost no effect)) | 0 (Herbicidal rate of 5% or less (almost no effect)) | 0 (Herbicidal rate of 5% or less (almost no effect)) | 0 (Herbicidal rate of 5% or less (almost no effect)) | 2 (Herbicidal rate of 20% or more and less than 40%) | 0 (Herbicidal rate of 5% or less (almost no effect)) | 0 (Herbicidal rate of 5% or less (almost no effect)) | Herbicidal effect by soil treatment, I: wild oat (wild oat [19]): 0 (Herbicidal rate of 5% or less (almost no effect)); Herbicidal effect by soil treatment, P: chickweed (chickweed [20]): 1 (Herbicidal rate of 5% or more and less than 20%); Herbicidal effect by soil treatment, R: persian speedwell (persian speedwell [21]): 5 (Herbicidal rate of 90% or more (almost completely withered)); herbicidal effect on I: wild oat (evaluation grade 0-5) (wild oat [22]): 0 (Herbicidal rate of 5% or less (almost no effect)); Herbicidal effect by soil treatment, H: barnyard grass (barnyard grass [23]): 0 (Herbicidal rate of 5% or less (almost no effect)); Herbicidal effect by soil treatment, L: windgrass (windgrass [24]): 0 (Herbicidal rate of 5% or less (almost no effect)); herbicidal effect on P: chickweed (evaluation grade 0-5) (chickweed [25]): 5 (Herbicidal rate of 90% or more (almost completely withered))
COc1ccccc1-c1sc2cc(S(C)(=O)=O)ccc2c1-c1c(O)c(C)nn(C)c1=O [3-165] | 4 (Herbicidal rate of 70% or more and less than 90%) | 5 (Herbicidal rate of 90% or more (almost completely withered)) | 5 (Herbicidal rate of 90% or more (almost completely withered)) | 5 (Herbicidal rate of 90% or more (almost completely withered)) | 5 (Herbicidal rate of 90% or more (almost completely withered)) | 3 (Herbicidal rate of 40% or more and less than 70%) | 4 (Herbicidal rate of 70% or more and less than 90%) | 5 (Herbicidal rate of 90% or more (almost completely withered)) | 4 (Herbicidal rate of 70% or more and less than 90%) | 5 (Herbicidal rate of 90% or more (almost completely withered)) | 3 (Herbicidal rate of 40% or more and less than 70%) | 5 (Herbicidal rate of 90% or more (almost completely withered)) | 1 (Herbicidal rate of 5% or more and less than 20%) | 4 (Herbicidal rate of 70% or more and less than 90%) | 3 (Herbicidal rate of 40% or more and less than 70%) | 4 (Herbicidal rate of 70% or more and less than 90%) | 4 (Herbicidal rate of 70% or more and less than 90%) | 4 (Herbicidal rate of 70% or more and less than 90%) | 0 (Herbicidal rate of 5% or less (almost no effect)) | 4 (Herbicidal rate of 70% or more and less than 90%) | Herbicidal effect by soil treatment, I: wild oat (wild oat [19]): 0 (Herbicidal rate of 5% or less (almost no effect)); Herbicidal effect by soil treatment, P: chickweed (chickweed [20]): 5 (Herbicidal rate of 90% or more (almost completely withered)); Herbicidal effect by soil treatment, R: persian speedwell (persian speedwell [21]): 5 (Herbicidal rate of 90% or more (almost completely withered)); herbicidal effect on I: wild oat (evaluation grade 0-5) (wild oat [22]): 4 (Herbicidal rate of 70% or more and less than 90%); Herbicidal effect by soil treatment, H: barnyard grass (barnyard grass [23]): 3 (Herbicidal rate of 40% or more and less than 70%); Herbicidal effect by soil treatment, L: windgrass (windgrass [24]): 3 (Herbicidal rate of 40% or more and less than 70%); herbicidal effect on P: chickweed (evaluation grade 0-5) (chickweed [25]): 5 (Herbicidal rate of 90% or more (almost completely withered))
